# Key:
# [1] = Chemical stability in PBS pH 6.5; format: physicochemical; conditions: for half-life: PBS pH 6.5; for Remaining Percentage (%) 0 min: PBS pH 6.5, 0 min; for Remaining Percentage (%) 30 min: PBS pH 6.5, 30 min; for Remaining Percentage (%) 60 min: PBS pH 6.5, 60 min; for Remaining Percentage (%) 120 min: PBS pH 6.5, 120 min; for Remaining Percentage (%) 240 min: PBS pH 6.5, 240 min
# Solubility in FaSSIF = format: physicochemical; conditions: read-out: SOL (μM) FaSSIF
# [2] = Plasma stability in mouse plasma; format: in vitro ADME; conditions: for half-life at 1 μM: test concentration 1 μM
Compound,half-life [1] [h],Remaining Percentage (%) 0 min [1] [%],Remaining Percentage (%) 30 min [1] [%],Remaining Percentage (%) 60 min [1] [%],Remaining Percentage (%) 120 min [1] [%],Remaining Percentage (%) 240 min [1] [%],solubility (Solubility in FaSSIF) [µM],Remaining Percentages (%) 0 min ([2]; 1 μM) [%],Remaining Percentages (%) 15 min ([2]; 1 μM) [%],Remaining Percentages (%) 30 min ([2]; 1 μM) [%],Remaining Percentages (%) 60 min ([2]; 1 μM) [%],Remaining Percentages (%) 120 min ([2]; 1 μM) [%],half-life at 1 μM [2] [h],Remaining Percentages (%) 0 min ([2]; 5 μM) [%],Remaining Percentages (%) 30 min ([2]; 5 μM) [%],Remaining Percentages (%) 120 min ([2]; 5 μM) [%],half-life at 5 μM ([2]; test concentration 5 μM (control)) [h]
"CSC(=O)N(C)C(C)Cc1ccc2c(c1)OCO2 (stereo not shown) [Prodrug 5, S-methyl (1-(benzo[d][1,3]dioxol-5-yl)propan-2-yl)(methyl)carbamothioate]",> 17.1,100.00,91.67,104.03,96.42,91.92,308,100,100.78,98.96,100.78,94.52,> 8.52,–,–,–,–
"CCSC(=S)NC(C)Cc1ccc2c(c1)OCO2 (stereo not shown) [Prodrug 12, ethyl (1-(benzo[d][1,3]dioxol-5-yl)propan-2-yl)carbamodithioate]",> 17.1,100.00,102.94,99.30,104.13,100.98,252,100,101.19,92.04,92.28,89.25,> 8.52,–,–,–,–
"CCOC(=S)NC(C)Cc1ccc2c(c1)OCO2 (stereo not shown) [Prodrug 4, O-ethyl (1-(benzo[d][1,3]dioxol-5-yl)propan-2-yl)carbamothioate]",> 17.1,100.00,103.44,100.85,94.76,94.28,60.3,100,100.00,100.28,97.80,95.32,> 8.52,–,–,–,–
"CSC(=S)NC(C)Cc1ccc2c(c1)OCO2 (stereo not shown) [Prodrug 10, methyl (1-(benzo[d][1,3]dioxol-5-yl)propan-2-yl)carbamodithioate]",> 17.1,100.00,96.55,105.17,109.86,113.62,306,100,100.89,98.00,100.22,89.09,> 8.52,–,–,–,–
"CSC(=S)N(C)C(C)Cc1ccc2c(c1)OCO2 (stereo not shown) [Prodrug 9, methyl (1-(benzo[d][1,3]dioxol-5-yl)propan-2-yl)(methyl)carbamodithioate]",> 17.1,100.00,97.22,96.84,107.55,89.55,30.4,100,101.32,96.64,98.79,97.14,> 8.52,–,–,–,–
"COC(=S)NC(C)Cc1ccc2c(c1)OCO2 (stereo not shown) [Prodrug 2, O-methyl (1-(benzo[d][1,3]dioxol-5-yl)propan-2-yl)carbamothioate]",> 17.1,100.00,105.00,100.45,102.27,105.00,279,100,101.54,99.62,96.35,91.94,> 8.52,–,–,–,–
"CCSC(=O)NC(C)Cc1ccc2c(c1)OCO2 (stereo not shown) [Prodrug 8, S-ethyl (1-(benzo[d][1,3]dioxol-5-yl)propan-2-yl)carbamothioate]",> 17.1,100.00,113.02,100.82,102.82,114.28,288,100,110.30,106.34,105.81,101.19,> 8.52,–,–,–,–
"COC(=S)N(C)C(C)Cc1ccc2c(c1)OCO2 (stereo not shown) [Prodrug 1, O-methyl (1-(benzo[d][1,3]dioxol-5-yl)propan-2-yl)(methyl)carbamothioate]",> 17.1,100.00,95.62,102.35,93.11,106.73,278,100,108.17,96.20,103.37,100.00,> 8.52,–,–,–,–
"CCSC(=S)N(C)C(C)Cc1ccc2c(c1)OCO2 (stereo not shown) [Prodrug 11, ethyl (1-(benzo[d][1,3]dioxol-5-yl)propan-2-yl)(methyl)carbamodithioate]",> 17.1,100.00,95.01,93.41,96.45,94.38,63.7,100,97.92,101.25,94.58,94.17,> 8.52,–,–,–,–
"CCSC(=O)N(C)C(C)Cc1ccc2c(c1)OCO2 (stereo not shown) [Prodrug 7, S-ethyl (1-(benzo[d][1,3]dioxol-5-yl)propan-2-yl)(methyl)carbamothioate]",> 17.1,100.00,99.17,97.73,95.86,103.73,291,100,110.62,111.95,113.27,102.65,> 8.52,–,–,–,–
"CSC(=O)NC(C)Cc1ccc2c(c1)OCO2 (stereo not shown) [Prodrug 6, S-methyl (1-(benzo[d][1,3]dioxol-5-yl)propan-2-yl)carbamothioate]",> 17.1,100.00,93.08,91.55,88.38,88.38,293,100,99.73,103.77,102.16,90.30,> 8.52,–,–,–,–
"CCOC(=S)N(C)C(C)Cc1ccc2c(c1)OCO2 (stereo not shown) [Prodrug 3, O-ethyl (1-(benzo[d][1,3]dioxol-5-yl)propan-2-yl)(methyl)carbamothioate]",> 17.1,100.00,100.73,95.33,99.99,91.16,131,100,106.31,97.30,97.75,96.85,> 8.52,–,–,–,–
"O=C(O)Cc1ccccc1Nc1c(Cl)cccc1Cl [Diclofenac, reference compound]",0.695,100.00,60.68,35.44,13.15,1.85,–,–,–,–,–,–,–,100,58.97,10.45,0.594

# Reference: patent publication US20250152553A1, “CARBAMOTHIOATE, AND CARBAMODITHIOATE DERIVATIVES OF MDMA, MDA OR ITS OPTICALLY ACTIVE (R)- OR (S)-MDMA AND MDA ISOMERS” (EmpathBio, Inc., priority 2023, published 2025)
